Results taken from ChEMBL document CHEMBL5226341, “Discovery of a Potent FLT3 Inhibitor (LT-850-166) with the Capacity of Overcoming a Variety of FLT3 Mutations” (J Med Chem, 2021).
Calls of active or inactive are those of the source. No cut-off for these calls is given here.

Legend:
[1] = biological target: Receptor-type tyrosine-protein kinase FLT3 (Homo sapiens) (UniProt P36888); assay: Inhibition of FLT3 in human MV4-11 cells assessed as inhibition of FLT3 phosphorylation at Tyr589/591 residue incubated for 4 hrs by western blot analysis; assay type: cell-based; conditions: dose 0.1-100 nM
Sequence of Receptor-type tyrosine-protein kinase FLT3 (Homo sapiens) (P36888 whole entry): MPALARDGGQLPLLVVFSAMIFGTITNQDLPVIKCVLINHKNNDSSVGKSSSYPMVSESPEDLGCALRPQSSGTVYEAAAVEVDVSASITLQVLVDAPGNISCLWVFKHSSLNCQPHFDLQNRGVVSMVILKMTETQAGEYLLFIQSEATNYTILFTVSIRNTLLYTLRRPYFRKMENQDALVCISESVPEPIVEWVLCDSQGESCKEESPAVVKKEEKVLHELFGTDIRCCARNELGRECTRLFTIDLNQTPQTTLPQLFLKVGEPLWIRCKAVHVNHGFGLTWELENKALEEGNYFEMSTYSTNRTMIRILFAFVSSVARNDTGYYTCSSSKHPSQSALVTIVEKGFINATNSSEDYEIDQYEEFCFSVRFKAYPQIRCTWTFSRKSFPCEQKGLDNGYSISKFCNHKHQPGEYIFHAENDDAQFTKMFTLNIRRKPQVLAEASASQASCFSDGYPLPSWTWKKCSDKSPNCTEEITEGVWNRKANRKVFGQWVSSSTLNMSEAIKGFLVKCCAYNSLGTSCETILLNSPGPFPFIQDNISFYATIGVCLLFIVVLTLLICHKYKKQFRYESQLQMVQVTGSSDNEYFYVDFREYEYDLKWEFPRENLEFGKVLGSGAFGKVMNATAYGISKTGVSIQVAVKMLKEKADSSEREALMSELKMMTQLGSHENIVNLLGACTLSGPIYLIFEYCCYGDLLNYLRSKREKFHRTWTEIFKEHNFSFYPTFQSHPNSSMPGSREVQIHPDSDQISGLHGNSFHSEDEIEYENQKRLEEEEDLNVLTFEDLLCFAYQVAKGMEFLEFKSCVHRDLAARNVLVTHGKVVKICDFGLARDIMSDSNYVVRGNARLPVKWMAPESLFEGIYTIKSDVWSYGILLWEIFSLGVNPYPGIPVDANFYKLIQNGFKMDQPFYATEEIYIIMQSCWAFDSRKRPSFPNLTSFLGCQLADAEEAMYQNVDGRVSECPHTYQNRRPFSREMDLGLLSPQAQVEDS

[2] = Ratio of IC50 for antiproliferative activity against mouse BaF3 cells harboring FLT3-ITD-Y842H mutant to IC50 for antiproliferative activity against mouse BaF3 cells harboring FLT3-ITD mutant; assay type: functional
[3] = Ratio of IC50 for antiproliferative activity against mouse BaF3 cells harboring FLT3-ITD-N676D mutant to IC50 for antiproliferative activity against mouse BaF3 cells harboring FLT3-ITD mutant; assay type: functional
[4] = system: HCT-116; assay: Antiproliferative activity against human HCT-116 cells assessed as reduction in cell viability measured after 72 hrs by CellTiterGlo luminescent assay; assay type: functional, cell-based; conditions: HCT-116, 72 h
[5] = system: THP-1; assay: Antiproliferative activity against human THP-1 cells assessed as reduction in cell viability measured after 72 hrs by CellTiterGlo luminescent assay; assay type: functional, cell-based; conditions: THP-1, 72 h
[6] = system: MV4-11; assay: Induction of apoptosis in human MV4-11 cells assessed as early apoptotic cells at 10 nM incubated for 24 hrs by AnnexinV-FITC/PI staining based flow cytometry (reference value: 3.09%); assay type: functional
[7] = system: MV4-11; assay: Induction of apoptosis in human MV4-11 cells assessed as necrotic cells at 50 nM incubated for 24 hrs by AnnexinV-FITC/PI staining based flow cytometry (reference value: 0.45%); assay type: functional
[8] = system: MV4-11; assay: Induction of apoptosis in human MV4-11 cells assessed as early apoptotic cells at 100 nM incubated for 24 hrs by AnnexinV-FITC/PI staining based flow cytometry (reference value: 3.09%); assay type: functional
[9] = system: HCD-57; assay: Induction of cell cycle arrest in mouse HCD-57 cells harboring FLT3-D835Y mutant at 100 nM incubated for 24 hrs by PI staining based flow cytometry; assay type: functional
[10] = MRT (0 to t) in Sprague-Dawley rat at 1 mg/kg, iv measured for 24 hrs by LC-MS/MS analysis; assay type: ADME, organism-based; conditions: in vivo
[11] = Half-life in Sprague-Dawley rat at 1 mg/kg, iv measured for 24 hrs by LC-MS/MS analysis; assay type: ADME, organism-based; conditions: in vivo
[12] = Toxicity in BALB/c mouse xenografted with human MV4-11 cells assessed as neutrophil count at 15 mg/kg, iv for 21 days; assay type: organism-based; conditions: in vivo, 504 h, time 21 day
[13] = Toxicity in BALB/c mouse xenografted with human MV4-11 cells assessed as granulocyte count at 15 mg/kg, iv for 21 days; assay type: organism-based; conditions: in vivo, 504 h, time 21 day
[14] = Toxicity in BALB/c mouse xenografted with human MV4-11 cells assessed as morphological changes in liver at 15 mg/kg, iv for 21 days by H and E staining based analysis; assay type: organism-based; conditions: in vivo, 504 h, time 21 day
[15] = Toxicity in ICR mouse assessed as effect on animal's survival rate at 100 mg/kg, iv administered as single dose and measured for 14 days; assay type: organism-based; conditions: in vivo, 336 h, time 14 day
[16] = Toxicity in ICR mouse assessed as behavioural changes at 100 mg/kg, iv administered as single dose and measured for 14 days; assay type: organism-based; conditions: in vivo, 336 h, time 14 day

## CCN1CCN(c2ccc(C(=O)Nc3cc(-c4ccc5ncn(Cc6c(Cl)cccc6Cl)c5c4)[nH]n3)cc2)CC1
[1]
  inhibition: Dose-Dependent Effect
[2]
  Ratio IC50: <0.2
[3]
  Ratio IC50: 5.58
[4]
  IC50: > 10 µM
[5]
  IC50: > 5 µM
[6]
  Activity: 10.4%
[7]
  Activity: 0.87%
[8]
  Activity: 15.2%
[9]
  Activity: Active
[10]
  MRT last at 24 h: 1.96 h
[11]
  half-life: 2.25 h
[12]
  Activity: Non-Toxic
[13]
  Activity: Non-Toxic
[14]
  Activity: Non-Toxic
[15]
  Activity: Non-Toxic
[16]
  Activity: Non-Toxic
